Legend:
[1] = Decolorization using exopolymeric substance produced by NIOCC 2a; set-up: species or system unidentified marine fungus NIOCC #2a (MTCC 5159); settings: 24 hours, dyes 0.015-0.04%, 10 mg EPS, 60° C., phosphate buffer pH 6
Protocol: The process of decolorization of effluents using the exoploymeric substance (EPS) produced by the fungus is carried out using separated and freeze dried EPS. A known amount of EPS is incubated with appropriately diluted effluents for a period of 6 to 12 hours. The decolorization is monitored in the supernatant after centrifugation. While using the EPS, about 10 mg of EPS (dry weight) is contacted with 3 ml of effluent having the final concentration of 10%.
The exopolymeric substance (EPS) of the fungus NIOCC 2a was prepared as follows: 1 liter of a 12 day old culture filtrate was frozen for 12 to 24 hours and allowed to thaw. The EPS precipitated on thawing and was removed by decantation. Methanol at a final concentration of 70% was added to the supernatant to further precipitate the remaining EPS from the culture supernatant. The precipitated EPS was collected by centrifugation and the pooled precipitate was lyophilized. To 10 mg of this EPS, various dyes and effluents were added at concentrations as given in example 2 and incubated at 60° C. with phosphate buffer at pH 6. […]

[2] = test system: culture supernatant of NIOCC 2a; experiment: Decolorization using culture supernatant of NIOCC 2a; format: biochemical, unidentified marine fungus NIOCC #2a (MTCC 5159); settings: dyes 0.02-0.04%, 60° C., pH 6.0, supernatant concentrated two-fold
Protocol: The process of decolorization of various dyes and effluents using the cell-free supernatant involves addition of filter sterilized culture supernatant of the said fungus grown in the presence of various dyes, inducers and dilute effluents. The decolorization of the effluents was monitored spectrophotometrically at appropriate wavelengths up to 12 hours. The uninoculated culture medium containing these dyes served as control.
NIOCC 2a was grown in B&K medium prepared in sea water of 25 ppt salinity (the pH of the medium being 7.0) for 6 days. It was supplemented with 1% textile effluent B on day 6. The culture supernatant on day 12 was collected and concentrated two-fold. The concentrated enzyme was incubated with various dyes used at concentrations as given in Example 2 and the effluents were used at 10% only. The decolorization was monitored at 6 and 12 hours by incubating the samples in a water bath at 60° C. and pH 6.0 The absorbance maxima specific to that particular dye/effluent was monitored for 6 to 12 hours.

[3] = test system: NIOCC 2a; experiment: Enhancement of laccase production by inducers; laccase activity in culture supernatant (ABTS); settings: for LACCASE ACTIVITY: dyes as inducers at 0.015-0.04%;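 on all read-outs here: supernatant laccase measured by 2 mM ABTS oxidation in 100 mM glycine-HCl buffer at pH 3, absorbance at 405 nm tracked over time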
Protocol: The laccase activity in the culture supernatant was measured using 2 mM ABTS prepared in 100 mM glycine-HCl buffer (pH 3) at 405 nm spectrophotometrically as a function of time.
In order to enhance the laccase production by MTCC 5159 various inducers were added to a 3 day old culture grown in B&K medium prepared in 25 ppt sea water having a pH of 7.0. The inducers such as p-anisidine, catechol, guaiacol, ferulic acid, vanillic acid, veratryl alcohol and 2,5 dimethyl aniline were used at a final concentration of 1 mM. […] The laccase activity in the culture supernatant was measured at an interval of 3 days up to 21 days as described in Example 1.
Dyes which are generally used for decolorization were also tested for their laccase induction properties. Trypan blue, aniline blue and remazol brilliant blue R at a final concentration of 0.04%, methylene blue, crystal violet, brilliant green and congo red at 0.02% and reactive orange 176 at 0.015% final concentration were added to B & K medium prepared in 25 ppt sea water having the pH of 7.0.

[4] = test system: fungus MTCC 5159; experiment: Decolorization of dyes and effluents by growing fungus culture; format: cell-based, unidentified marine fungus NIOCC #2a (MTCC 5159); settings: FIG. 2a, up to day 6
Source text: Black liquor is dark brown in color and after decolorization by the fungus MTCC 5159, it turns light brown after 6 days. Similarly molasses spent wash is dark brown and turns straw color after 6 days. Textile effluents A, originally magenta in color was comparatively difficult to decolorize whereas Textile effluent B, originally bottle green in color was comparatively easy to decolorize to a light green color after 6 days. The process for the decolorization of various effluents utilizing the fungal biomass involves addition of sterilized, appropriately diluted effluents to a 6 day-old culture of NIOCC 2a growing in B&K medium. The degradation of effluents and various dyes is monitored spectrophotometrically by removing an aliquot of sample from these cultures and measuring changes in absorbance at appropriate wavelengths. The decolorization is measured every alternate day up to 6 days. […]
The fungus MTCC 5159 was tested for its ability to decolorize various dyes and effluents by monitoring the change in its specific absorbance maxima every alternate day over a period of 6 days after the dye/effluents were added. […] The extent of decolorization was recorded as residual color (in percentage). […] Effluents like textile effluent A, B, MSW and black liquor were also monitored at their absorbance maxima in B&K medium, at 505, 663, 663 and 317 nm respectively.

Row | Compound | PERCENT DECOLORIZATION ([1]; listed as Congo red) | PERCENT DECOLORIZATION ([1]; listed as congo red) | PERCENT DECOLORIZATION ([2]; 6 hours) | PERCENT DECOLORIZATION ([2]; 12 hours) | comparison of inducers of laccase production, in words [3] | PERCENT DECOLORIZATION [1] | LACCASE ACTIVITY ([3]; day 3) | LACCASE ACTIVITY ([3]; day 6) | LACCASE ACTIVITY ([3]; day 8) | LACCASE ACTIVITY ([3]; day 10) | LACCASE ACTIVITY ([3]; day 12) | LACCASE ACTIVITY ([3]; day 14) | LACCASE ACTIVITY ([3]; day 16) | LACCASE ACTIVITY ([3]; day 18) | comparison of dye degradation by the fungus culture, in words [4]
1 | Nc1c(/N=N/c2ccc(-c3ccc(/N=N/c4cc(S(=O)(=O)O)c5ccccc5c4N)cc3)cc2)cc(S(=O)(=O)O)c2ccccc12 [Congo Red, congo red] | 29% | not decolorized to these extents | 54% | 47% | – | – | – | – | – | – | – | – | – | – | –
2 | O=S(=O)([O-])[O-].[Cu+2] [Copper sulphate] | – | – | – | – | best inducer | – | – | – | – | – | – | – | – | – | –
3 | CN(C)c1ccc(C(=C2C=CC(=[N+](C)C)C=C2)c2ccc(N(C)C)cc2)cc1 [Crystal Violet, crystal violet] | – | – | 44% | 54% | – | 80% | – | – | – | – | – | – | – | – | –
4 | CN(C)c1ccc2nc3ccc(=[N+](C)C)cc-3sc2c1 [Methylene Blue, methylene blue] | – | – | 3% | 5% | – | – | – | – | – | – | – | – | – | – | –
5 | Nc1c(S(=O)(=O)[O-])cc(Nc2cccc(S(=O)(=O)CCOS(=O)(=O)[O-])c2)c2c1C(=O)c1ccccc1C2=O.[Na+].[Na+] [RBBR, remazol brilliant blue R] | – | – | 67% | 46% | – | 100% | 3 UL^−1 | 43 UL^−1 | 0 UL^−1 | 0 UL^−1 | 0 UL^−1 | 0 UL^−1 | 0 UL^−1 | 0 UL^−1 | –
6 | Cc1cc(-c2ccc(/N=N/c3c(S(=O)(=O)O)cc4cc(S(=O)(=O)O)cc(N)c4c3O)c(C)c2)ccc1/N=N/c1c(S(=O)(=O)O)cc2cc(S(=O)(=O)O)cc(N)c2c1O [Trypan Blue, Trypan blue] | – | – | 22% | 25% | – | 79% | – | – | – | – | – | – | – | – | –
7 | Reactive orange 176 [RO 176] | – | – | – | – | – | 100% | 21 UL^−1 | 8 UL^−1 | 335 UL^−1 | 949 UL^−1 | 904 UL^−1 | 1158 UL^−1 | 1108 UL^−1 | 1180 UL^−1 | least degraded
8 | aniline blue | – | – | 55% | 40% | – | 75% | 12 UL^−1 | 67 UL^−1 | 21 UL^−1 | 825 UL^−1 | 1051 UL^−1 | 1166 UL^−1 | 1211 UL^−1 | 1048 UL^−1 | –

From patent publication US8017374B2, “Processes for decolorization of colored effluents” (priority 2005, dated 2011)
